Laboratory results reported in patent publication US20170190671A1, “BIS(ARYL)CATECHOL DERIVATIVES AS HERBICIDES” (E I DU PONT DE NEMOURS AND COMPANY, priority 2014, published 2017).

Tests used:
Format in all cases: in vivo
[1] = tested on: blackgrass (Alopecurus myosuroides); experiment: Test A postemergence; conditions: Alopecurus myosuroides, post-emergence, 240 h, 0 to 100 scale, read-out: Plant response rating, Blackgrass
Excerpt: (§1) Seeds of plant species selected from barnyardgrass (Echinochloa crus-galli), kochia (Kochia scoparia), ragweed (common ragweed, Ambrosia elatior), Italian ryegrass (Lolium multiflorum), large (Lg) crabgrass (Digitaria sanguinalis), giant foxtail (Setaria faberii), morningglory (Ipomoea spp.), pigweed (Amaranthus retroflexus), velvetleaf (Abutilon theophrasti), wheat (Triticum aestivum), and corn (Zea mays) were planted into a blend of loam soil and sand and treated preemergence with a directed soil spray using test chemicals formulated in a non-phytotoxic solvent mixture which included a surfactant.
(§2) At the same time, plants selected from these crop and weed species and also blackgrass (Alopecurus myosuroides), and galium (catchweed bedstraw, Galium aparine) were planted in pots containing the same blend of loam soil and sand and treated with postemergence applications of test chemicals formulated in the same manner. Plants ranged in height from 2 to 10 cm and were in the one- to two-leaf stage for the postemergence treatment. Treated plants and untreated controls were maintained in a greenhouse for approximately 10 days, after which time all treated plants were compared to untreated controls and visually evaluated for injury. Plant response ratings, summarized in Table A, are based on a 0 to 100 scale where 0 is no effect and 100 is complete control. A dash (-) response means no test result.

[2] = tested on: ragweed (common ragweed, Ambrosia elatior); experiment: Test A postemergence; conditions: Ambrosia artemisiifolia, post-emergence, 240 h, 0 to 100 scale, read-out: Plant response rating, Ragweed
Excerpt: as §1, §2

[3] = tested on: pigweed (Amaranthus retroflexus); experiment: Test A postemergence; conditions: Amaranthus retroflexus, post-emergence, 240 h, 0 to 100 scale, read-out: Plant response rating, Pigweed
Excerpt: as §1, §2

[4] = tested on: barnyardgrass (Echinochloa crus-galli); experiment: Test A postemergence; conditions: Echinochloa crus-galli, post-emergence, 240 h, 0 to 100 scale, read-out: Plant response rating, Barnyardgrass
Excerpt: as §1, §2

[5] = tested on: Italian ryegrass (Lolium multiflorum); experiment: Test A postemergence; conditions: Lolium multiflorum, post-emergence, 240 h, 0 to 100 scale, read-out: Plant response rating, Ryegrass, Italian
Excerpt: as §1, §2

kochia (Kochia scoparia) [6] = experiment: Test A postemergence; conditions: Bassia scoparia, post-emergence, 240 h, 0 to 100 scale, read-out: Plant response rating, Kochia
Excerpt: as §1, §2

[7] = tested on: galium (catchweed bedstraw, Galium aparine); experiment: Test A postemergence; conditions: Galium, post-emergence, 240 h, 0 to 100 scale, read-out: Plant response rating, Galium
Excerpt: as §1, §2

corn (Zea mays) = experiment: Test A postemergence; conditions: Zea mays, post-emergence, 240 h, 0 to 100 scale
Excerpt: as §1, §2

[8] = tested on: giant foxtail (Setaria faberii); experiment: Test A postemergence; conditions: Setaria faberi, post-emergence, 240 h, 0 to 100 scale, read-out: Plant response rating, Foxtail, Giant
Excerpt: as §1, §2

[9] = tested on: wheat (Triticum aestivum); experiment: Test A postemergence; conditions: Triticum aestivum, post-emergence, 240 h, 0 to 100 scale, read-out: Plant response rating, Wheat
Excerpt: as §1, §2

[10] = tested on: ragweed (common ragweed, Ambrosia elatior); experiment: Test A preemergence; conditions: Ambrosia artemisiifolia, pre-emergence, 240 h
Excerpt: as §1, §2

[11] = tested on: pigweed (Amaranthus retroflexus); experiment: Test A preemergence; conditions: Amaranthus retroflexus, pre-emergence, 240 h
Excerpt: as §1, §2

[12] = tested on: barnyardgrass (Echinochloa crus-galli); experiment: Test A preemergence; conditions: Echinochloa crus-galli, pre-emergence, 240 h
Excerpt: as §1, §2

[13] = tested on: Italian ryegrass (Lolium multiflorum); experiment: Test A preemergence; conditions: Lolium multiflorum, pre-emergence, 240 h
Excerpt: as §1, §2

kochia (Kochia scoparia) [14] = experiment: Test A preemergence; conditions: Bassia scoparia, pre-emergence, 240 h
Excerpt: as §1, §2

[15] = tested on: giant foxtail (Setaria faberii); experiment: Test A preemergence; conditions: Setaria faberi, pre-emergence, 240 h
Excerpt: as §1, §2

For `N#Cc1cccc(Oc2ncc(Br)cn2)c1Oc1ccc(Br)cn1` [Compound 12], the pest or weed control at 31 g/ha ([1]; 31 g ai/ha) was 0%, the pest or weed control at 125 g/ha ([1]; 125 g ai/ha) was 50% and the pest or weed control at 31 g/ha ([2]; 31 g ai/ha) was 0%. It also gave a pest or weed control at 125 g/ha ([2]; 125 g ai/ha) of 0%, a pest or weed control at 31 g/ha ([3]; 31 g ai/ha) of 10% and a pest or weed control at 125 g/ha ([3]; 125 g ai/ha) of 100%. It also gave a pest or weed control at 31 g/ha ([4]; 31 g ai/ha) of 0%, a pest or weed control at 125 g/ha ([4]; 125 g ai/ha) of 20% and a pest or weed control at 31 g/ha ([5]; 31 g ai/ha) of 0%. For the same compound, the pest or weed control at 125 g/ha ([5]; 125 g ai/ha) was 0%, the pest or weed control at 31 g/ha (kochia (Kochia scoparia) [6]; 31 g ai/ha) was 0% and the pest or weed control at 125 g/ha (kochia (Kochia scoparia) [6]; 125 g ai/ha) was 20%. It also gave a pest or weed control at 31 g/ha ([7]; 31 g ai/ha) of 10%, a pest or weed control at 125 g/ha ([7]; 125 g ai/ha) of 50% and a Corn plant response rating (crop injury, 0 = no effect, 100 = complete kill) at 31 g/ha (corn (Zea mays); 31 g ai/ha) of 0%. The Corn plant response rating (crop injury, 0 = no effect, 100 = complete kill) at 125 g/ha (corn (Zea mays); 125 g ai/ha) was 20%, the pest or weed control at 31 g/ha ([8]; 31 g ai/ha) was 0% and the pest or weed control at 125 g/ha ([8]; 125 g ai/ha) was 40%. It also gave a plant injury at 31 g/ha ([9]; 31 g ai/ha) of 0%, a plant injury at 125 g/ha ([9]; 125 g ai/ha) of 20% and a pest or weed control at 31 g/ha ([10]; 31 g ai/ha, 0 to 100 scale (0 no effect, 100 complete control), read-out: Ragweed plant response rating) of 0%. For the same compound, the pest or weed control at 125 g/ha ([10]; 125 g ai/ha, 0 to 100 scale, read-out: Plant response rating, Ragweed) was 0%, the pest or weed control at 31 g/ha ([11]; 31 g ai/ha, 0 to 100 scale (0 no effect, 100 complete control), read-out: Pigweed plant response rating) was 60% and the pest or weed control at 125 g/ha ([11]; 125 g ai/ha, 0 to 100 scale, read-out: Plant response rating, Pigweed) was 100%. The pest or weed control at 31 g/ha ([12]; 31 g ai/ha, 0 to 100 scale (0 no effect, 100 complete control), read-out: Barnyardgrass plant response rating) was 0%, the pest or weed control at 125 g/ha ([12]; 125 g ai/ha, 0 to 100 scale, read-out: Plant response rating, Barnyardgrass) was 30% and the pest or weed control at 31 g/ha ([13]; 31 g ai/ha, 0 to 100 scale (0 no effect, 100 complete control), read-out: Ryegrass, Italian plant response rating) was 0%. The pest or weed control at 125 g/ha ([13]; 125 g ai/ha, 0 to 100 scale, read-out: Plant response rating, Ryegrass, Italian) was 0%, the pest or weed control at 31 g/ha (kochia (Kochia scoparia) [14]; 31 g ai/ha, 0 to 100 scale (0 no effect, 100 complete control), read-out: Kochia plant response rating) was 0% and the pest or weed control at 125 g/ha (kochia (Kochia scoparia) [14]; 125 g ai/ha, 0 to 100 scale, read-out: Plant response rating, Kochia) was 20%. The pest or weed control at 31 g/ha ([15]; 31 g ai/ha, 0 to 100 scale (0 no effect, 100 complete control), read-out: Foxtail, Giant plant response rating) was 0% and the pest or weed control at 125 g/ha ([15]; 125 g ai/ha, 0 to 100 scale, read-out: Plant response rating, Foxtail, Giant) was 70%.
